Reference: US20240228490A1, “HETEROCYCLIC DERIVATIVE INHIBITOR AND PREPARATION METHOD THEREFOR AND APPLICATION THEREOF” (Shanghai Hansoh Biomedical Co., Ltd., priority 2021, published 2024)
pIC50: −log10 of the molar value.

Legend:
[1] = Pharmacokinetic assay in Balb/C mice; conditions: male, mouse, plasma, po, 1 mg/kg
Method: Balb/C mice were used as test animals.
(§1) Male Balb/C mice (6 mice per example), purchased from Shanghai Jiesijie Laboratory Animal Co., LTD, with Certificate No.: SCXK (Shanghai) 2013-0006 N0.311620400001794.
(§2) 5 g of hydroxyethyl cellulose (HEC, CMC-Na, viscosity: 800-1200 Cps) was weighed and dissolved in 1000 mL of purified water, followed by the addition of 10 g of Tween 80. The mixture was mixed well to obtain a clear solution.
(§3) 2.05 mg of the compound was weighed and dissolved in the solution. The mixture was shaken well, crushed in a cell crusher for 1 minute, and sonicated for 15 minutes to obtain a suspension with a concentration of 0.1 mg/mL.
(§4) After an overnight fast, male Balb/C mice were administered p.o. with the test compound at a dose of 1 mg/kg and a volume of 10 mL/kg.
(§5) 0.04 mL of blood was taken from the orbit of the mouse at 0, 0.5, 1, 2, 4, 6, 8 and 24 hours after the administration. The samples were stored in EDTA-K2 tubes, and centrifuged for 6 minutes at 4° C., 6000 rpm to separate the plasma. The plasma samples were stored at −80° C. The mouse was fed 4 hours after the administration.
(§6) • Liquid chromatography condition: Shimadzu LC-20AD pump • Mass spectrometry condition: AB Sciex API 4000 mass spectrometer • Chromatographic column: phenomenex Gemiu 5 μm C18 50×4.6 mm • Mobile phase: Eluent A was 0.1% formic acid in water, and Eluent B was acetonitrile • Flow rate: 0.8 mL/min • Elution time: 0-4.0 minutes, the eluent is as follows:
(§7) The main parameters of pharmacokinetics were calculated by WinNonlin 8.2.

[2] = Bidirectional permeability through Caco-2 cell model; conditions: human
Method: (§8) 100 μL of transport buffer (HBSS containing 10 μM test compound, 0.5% BSA, and 0.5% DMSO) was added to the administration end of A to B • b. 300 μL of transport buffer (HBSS containing 0.5% BSA) was added to the receiving end of A to B • c. 300 μL of transport buffer (HBSS containing 10 μM test compound, 0.5% BSA, and 0.5% DMSO) was added to the administration end of B to A • d. 100 μL of transport buffer (HBSS containing 0.5% BSA) was added to the receiving end of B to A • e. Incubation for 2 hours • d. Samples were taken, processed and detected by mass spectrometry.
(§9) • Instrument: liquid chromatography; • Chromatographic column: Waters XSelect HSS T3 C18 (2.1*50 mm, 2.5 μm); • Mobile phase: phase A: water containing 0.1% formic acid; phase B: acetonitrile containing 0.1% formic acid.
(§10) • Instrument: API4000 liquid chromatography-mass spectrometer; • Ion source: electrospray ionization source (ESI); • Detection method: positive ion detection; • Scan mode: multiple reaction monitoring (MRM) mode.

PARP1 enzyme = PARP1 enzyme (Homo sapiens (Human), UniProt P09874); assay: Inhibitory activity on PARP1 enzyme (chemiluminescence); type: biochemical
PARP1 enzyme, sequence (P09874 whole entry): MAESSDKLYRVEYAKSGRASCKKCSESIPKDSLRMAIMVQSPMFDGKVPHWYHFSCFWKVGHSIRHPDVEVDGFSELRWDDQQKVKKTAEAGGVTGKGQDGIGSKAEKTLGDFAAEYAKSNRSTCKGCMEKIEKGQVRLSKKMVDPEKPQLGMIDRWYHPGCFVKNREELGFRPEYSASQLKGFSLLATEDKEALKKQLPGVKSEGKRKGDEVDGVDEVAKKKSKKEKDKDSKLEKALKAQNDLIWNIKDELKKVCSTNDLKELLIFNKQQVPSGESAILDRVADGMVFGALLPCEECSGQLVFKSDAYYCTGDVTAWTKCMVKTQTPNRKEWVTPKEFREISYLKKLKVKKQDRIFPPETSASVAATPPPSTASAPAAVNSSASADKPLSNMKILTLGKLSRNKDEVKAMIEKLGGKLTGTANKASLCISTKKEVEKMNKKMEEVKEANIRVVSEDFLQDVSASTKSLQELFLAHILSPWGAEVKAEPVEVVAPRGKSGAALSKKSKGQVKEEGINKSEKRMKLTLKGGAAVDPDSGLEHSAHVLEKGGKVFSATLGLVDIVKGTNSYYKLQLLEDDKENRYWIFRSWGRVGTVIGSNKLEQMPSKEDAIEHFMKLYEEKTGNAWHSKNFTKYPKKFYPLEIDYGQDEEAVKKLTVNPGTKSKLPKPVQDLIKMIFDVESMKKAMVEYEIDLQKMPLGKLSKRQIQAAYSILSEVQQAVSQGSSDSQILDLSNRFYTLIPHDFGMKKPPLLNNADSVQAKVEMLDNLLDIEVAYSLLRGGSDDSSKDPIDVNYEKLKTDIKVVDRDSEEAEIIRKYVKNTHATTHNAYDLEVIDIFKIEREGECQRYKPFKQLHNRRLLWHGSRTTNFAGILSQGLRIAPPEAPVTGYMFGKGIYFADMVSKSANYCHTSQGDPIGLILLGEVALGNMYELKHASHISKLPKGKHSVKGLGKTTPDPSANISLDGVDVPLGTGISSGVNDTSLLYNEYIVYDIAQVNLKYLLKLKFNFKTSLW
Method: The inhibitory activity of the compounds on PARP1 enzyme was determined by the chemiluminescence method in the experiment. The experiment was carried out in a 384-well plate. Coating histones in a 384-well plate: 5×histone solution was diluted 5 folds with PBS, added to a 384-well ELISA plate (25 μL per well), and incubated at 4° C. overnight. […] A mixture of PARP reaction biotin-labeled substrate, activated DNA, 10×PARP buffer and water was added (12.5 μL per well). Compound solutions with different concentrations were formulated using the experimental buffer (10% DMSO aqueous solution containing 1.25 mM DTT). The final detection concentration started from 100 nM, with 3-fold dilution and 8 concentrations. The compound solutions were added to the reaction wells of the 384-well plate (2.5 μL per well). 2.5 μL of 10% DMSO aqueous solution containing 1.25 mM DTT was added to the positive control well and blank well (2.5 μL per well). […] The plate was centrifuged at 1000 rpm for 1 minute, and reacted at room temperature for 60 minutes. […] Streptavidin-HRP solution diluted 50 folds with Blocking buffer 3 was added (25 μL per well), and the plate was incubated at room temperature for 30 minutes. […] The luminescence reaction solution obtained by mixing ECL substrate A and ELISA ECL substrate B (1:1) was added (50 μL per well) for reaction. The chemiluminescence values were measured immediately with a BioTek Synergy H1 or Envision instrument.
The chemiluminescence values were measured with a BioTek Synergy H1 or Envision instrument. The inhibition rate was calculated, and the concentration and inhibition rate were fitted to a nonlinear regression curve using Graphpad Prism software to obtain the IC50 value.

[3] = system: BRCA2 Knockout DLD-1 cells; assay: Inhibition of proliferation of BRCA2 Knockout DLD-1 cells (CellTiter-Glo); type: cell-based; conditions: Homo sapiens, about 144 hours incubation
Method: BRCA2 Knockout DLD-1 cells were cultured using RPMI1640 culture medium containing 10% FBS to an appropriate cell density. The cells were collected, and adjusted to an appropriate cell concentration using the complete culture medium. The cell suspension was spread on a 96-well plate (90 μL per well), and placed in a 37° C., 5% CO2 incubator overnight. Compound solutions of different concentrations were formulated using DMSO and culture medium, and vehicle control was set up. The compound solutions were added to the 96-well plate (10 μL per well), and the plate was incubated in a 37° C., 5% CO2 incubator for about 144 hours. CellTiter-Glo solution was added, and the plate was shaken to mix evenly, and incubated in the dark for 10 to 30 minutes. The values were measured with a Synergy H1 or Envision microplate reader.
The inhibition rate was calculated using the luminescence signal value. The concentration and inhibition rate were fitted to a nonlinear regression curve using Graphpad Prism software to obtain the IC50 value.

PAR in tumor tissue = assay: PD part of PK/PD study in MDA-MB-436 subcutaneous xenograft model: inhibition of PAR in tumor tissue (Western blot); type: in vivo, BALB/c nude mice; conditions: within 24 hours after a single administration, MDA-MB-436 model
Method: • a. Grouping: According to the growth of the tumor, when the tumor grew to a volume of 300-500 mm^3, tumor-bearing mice were selected according to the experimental design and randomly grouped (3 mice per each time point) to start the PK/PD test. • b. Fasting: All tumor-bearing mice were fasted (with free access to water) overnight (fasting >8 hours) before the administration. • c. Administration: Except for the blank control group, a single oral administration was carried out according to the time of the experimental design, and the administration volume was 10 mL/kg. • d. Sample collection: The mice were euthanized by CO2 asphyxiation according to the time of the experimental design, and the samples were collected. One plasma sample and three tumor tissue samples were collected from each animal.
Tumor tissue collection: After the blood collection, the tumor tissue was collected. The collected tumor tissue was divided into 3 aliquots (˜0.1 g each), placed into labeled 2 mL centrifuge tubes, and stored in a refrigerator at −80±10° C. for PK or PD test.
1 mL of tumor lysis solution was added to each tube of tumor tissue sample, followed by the addition of steel beads. […]
Protein quantification was performed by BCA protein quantification kit. […]
c. […] PAR was subjected to fluorescence imaging, and Gapdh internal control was subjected to fluorescence imaging using IRDye 800 CW channel.

[4] = system: human colorectal cancer cell line DLD-1 BRCA2−/− subcutaneous xenograft tumor; assay: In vivo pharmacodynamic study in DLD-1 BRCA2−/− subcutaneous xenograft tumor model; conditions: oral, once/day, 21 days
Method: BALB/c nude mice, 6 to 8 weeks old, 9, purchased from the Experimental Animal Management Department of Shanghai Institute of Family Planning
The recovered cells were plated in a cell culture flask (the cell type, date, name of the experimenter and the like were labeled on the wall of the flask), and cultured in a CO2 incubator (the temperature was 37° C. and the CO2 concentration was 5% in the incubator). • b. Cells were passaged once every three days. After passage, the cells continued to be cultured in the CO2 incubator. This process was repeated until the number of cells was sufficient for the in vivo efficacy test. • c. The cultured cells were collected, and counted with an automatic cell counter. According to the counting results, the cells were resuspended with PBS to obtain a cell suspension (density: 5×10^7/mL), which was placed in an ice box for later use.
The nude mice were labeled with disposable universal ear tags for rats and mice before inoculation. • b. During the inoculation, the cell suspension was mixed well. 0.1 to 1 mL of the cell suspension was drawn with a 1 mL syringe, air bubbles were removed, and then the syringe was placed on an ice pack for later use. • c. The nude mouse was bound with the left hand. The position on the right side of the back close to the right shoulder of the nude mouse (inoculation site) was disinfected with 75% alcohol. Inoculation started after 30 seconds. • d. The test nude mice were successively inoculated (each mouse was inoculated with 0.1 mL of cell suspension).
According to the tumor growth, the tumor was measured on 10 to 18 days after the inoculation, and the tumor size was calculated.
Calculation of tumor volume: tumor volume (mm^3)=length (mm)×width (mm)×width (mm)/2 • b. The tumor-bearing mice were grouped according to their body weight and tumor size by random grouping. • c. […] Tumors were measured and the mice were weighed twice a week after the administration of test compounds began. • e. Animals were euthanized at the end of the experiment. • f. Data were processed by using softwares such as Excel.

in vitro = conditions: human, Caco-2
Method: as §8, §9, §10

in vivo = conditions: male, Balb/C, mouse, po, 1 mg/kg
Method: Balb/C mice were used as test animals.
as §1, §2, §3, §4, §5, §6, §7

Structure (SMILES) | AUC(0-t) [1] | Cmax [1] | Tmax [1] | half-life [1] | Papp A→B at 2 h, 10 μM [2] | Papp B→A at 2 h, 10 μM [2] | pIC50 (PARP1 enzyme) | pIC50 [3] | Inhibition of intratumoral PAR compared with AZD5305 (PAR in tumor tissue) | Animal's body weight [4] | Tumor growth inhibition rate TGI (%) [4] | efflux ratio at 2 h, 10 μM [2] | Papp A→B at 2 h, 10 μM (in vitro) | Papp B→A at 2 h, 10 μM (in vitro) | efflux ratio at 2 h, 10 μM (in vitro) | AUC(0-t) (in vivo) | Cmax (in vivo) | Tmax (in vivo) | half-life (in vivo)
CCc1cc2ncc(CN3CC=C(c4ccc(C(=O)NC)nc4)CC3)cc2[nH]c1=O [Example 1, 1′-((7-Ethyl-6-oxo-5,6-dihydro-1,5-naphthyridin-3-yl)methyl)-N-methyl-1′,2′,3′,6′-tetrahydro-[3,4′-bipyridine]-6-carboxamide] | 119 µg·h/mL | 9.93 µg/mL | 1 h | 6.9 h | 128 nm/s | 192 nm/s | 9.03 | 8.92 | comparable | no significant decrease | > 90% | – | – | – | – | – | – | – | –
CCc1cc2ncc(CN3CCN(c4cnc5c(NC)nccc5c4)CC3)cc2[nH]c1=O [Example 3, 3-Ethyl-7-((4-(8-(methylamino)-1,7-naphthyridin-3-yl)piperazin-1-yl)methyl)-1,5-naphthyridin-2(1H)-one] | 12.7 µg·h/mL | 1.57 µg/mL | 0.5 h | 3.7 h | 71.5 nm/s | 241 nm/s | 9.40 | – | – | no significant decrease | > 90% | 3.4 | – | – | – | – | – | – | –
CCc1cc2ncc(CN3CC=C(c4ccc(C(=O)NC5CC5)nc4)CC3)cc2[nH]c1=O [Example 29, N-Cyclopropyl-1′-((7-ethyl-6-oxo-5,6-dihydro-1,5-naphthyridin-3-yl)methyl)-1′,2′,3′,6′-tetrahydro-[3,4′-bipyridine]-6-carboxamide] | 60.6 µg·h/mL | 8.27 µg/mL | 0.5 h | 3.7 h | 122 nm/s | 190 nm/s | 9.01 | 8.72 | – | no significant decrease | > 90% | 1.6 | – | – | – | – | – | – | –
CCc1cc2ncc(CN3CC=C(c4ccc(C(=O)NC)nc4C#N)CC3)cc2[nH]c1=O [Example 35, 2-Cyano-1′-((7-ethyl-6-oxo-5,6-dihydro-1,5-naphthyridin-3-yl)methyl)-N-methyl-1′,2′,3′,6′-tetrahydro-[3,4′-bipyridine]-6-carboxamide] | – | – | – | – | – | – | 9.00 | 8.64 | – | – | > 90% | – | 51.9 nm/s | 157 nm/s | 3 | 43.2 µg·h/mL | 6.1 µg/mL | 0.5 h | 2.7 h
CCc1cc2ncc(CN3CC=C(c4ccc(C(=O)NC)nc4F)CC3)cc2[nH]c1=O [Example 36, 1′-((7-Ethyl-6-oxo-5,6-dihydro-1,5-naphthyridin-3-yl)methyl)-2-fluoro-N-methyl-1′,2′,3′,6′-tetrahydro-[3,4′-bipyridine]-6-carboxamide] | 61.9 µg·h/mL | 6.55 µg/mL | 0.5 h | 4.6 h | 148 nm/s | 156 nm/s | 9.10 | 8.80 | – | – | – | 1.1 | – | – | – | – | – | – | –
CNC(=O)c1ccc(C2=CCN(Cc3cnc4cc(C5CC5)c(=O)[nH]c4c3)CC2)cn1 [Example 45, 1′-((7-Cyclopropyl-6-oxo-5,6-dihydro-1,5-naphthyridin-3-yl)methyl)-N-methyl-1′,2′,3′,6′-tetrahydro-[3,4′-bipyridine]-6-carboxamide] | – | – | – | – | – | – | 9.10 | 8.46 | – | – | – | – | 98 nm/s | 154 nm/s | 1.6 | 221 µg·h/mL | 8.98 µg/mL | 1 h | 23 h
CCc1cc2ncc(CN3CC=C(c4cnc(C(=O)NC)s4)CC3)cc2[nH]c1=O [Example 46, 5-(1-((7-Ethyl-6-oxo-5,6-dihydro-1,5-naphthyridin-3-yl)methyl)-1,2,3,6-tetrahydropyridin-4-yl)-N-methylthiazole-2-carboxamide] | – | – | – | – | – | – | 9.22 | – | – | – | > 90% | – | – | – | – | – | – | – | –
CCc1cc2ncc(CN3CCN(c4cnc5c(NC)nc(C)cc5c4)CC3)cc2[nH]c1=O [Example 72, 3-Ethyl-7-((4-(6-methyl-8-(methylamino)-1,7-naphthyridin-3-yl)piperazin-1-yl)methyl)-1,5-naphthyridin-2(1H)-one] | – | – | – | – | 52.3 nm/s | 127 nm/s | – | 8.32 | – | – | – | 2.5 | – | – | – | – | – | – | –
